From ChEMBL document CHEMBL1201862, “PubChem BioAssay data set” (2004)
Active and inactive are the calls of the source. Rule as the data show it, for most assays here: actives have a measured IC50 and inactives only a lower limit.

Tests used:
Hexokinase = target: T1, Hexokinase (Trypanosoma brucei, UniProt Q38C41); test: Confirmation assay for inhibitors of Trypanosoma brucei hexokinase 1-Analogue-first series. [Related pubchem assays (depositor defined):AID1430, AID1632, AID2516, AID2560, AID2579, AID2600, AID449725, AID492951]; format: functional
T1 sequence (Q38C41 whole entry): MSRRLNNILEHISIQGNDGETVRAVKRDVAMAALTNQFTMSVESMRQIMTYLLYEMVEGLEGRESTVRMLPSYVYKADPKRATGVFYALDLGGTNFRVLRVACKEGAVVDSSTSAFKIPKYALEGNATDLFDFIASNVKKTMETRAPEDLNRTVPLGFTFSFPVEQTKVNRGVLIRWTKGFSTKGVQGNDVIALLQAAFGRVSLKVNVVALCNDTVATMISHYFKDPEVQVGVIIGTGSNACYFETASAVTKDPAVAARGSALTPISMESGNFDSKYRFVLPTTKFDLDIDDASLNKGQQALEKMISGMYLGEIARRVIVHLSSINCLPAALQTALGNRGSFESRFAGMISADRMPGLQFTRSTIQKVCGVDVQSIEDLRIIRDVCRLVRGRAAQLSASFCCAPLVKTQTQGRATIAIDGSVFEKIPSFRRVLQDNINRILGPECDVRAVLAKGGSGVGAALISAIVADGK

HEK293 [1] = test: inhibition of NOD1-driven NF-kB reporter – cell-based, luminescence, uHTS, primary screen (AID 1578); format: functional; settings: Homo sapiens
HEK293 [2] = test: cells; format: functional, cell-based; settings: Homo sapiens
HEK293 [3] = test: cells; format: functional, cell-based; settings: Homo sapiens; remark: listed apart in the source
HEK293 [4] = test: NOD2 signaling inhibitors in MDP-stimulated cells, cell-based, uHTS, luminescence (AID 2001); format: functional; settings: Homo sapiens
Tumor necrosis factor = Tumor necrosis factor (Homo sapiens, UniProt P01375); test: analog potency on TNFa NF-kB signaling – cell-based, revised, SAR follow-up (AID 2337); format: functional
Sequence of Tumor necrosis factor (P01375 whole entry, the tested form may be a part): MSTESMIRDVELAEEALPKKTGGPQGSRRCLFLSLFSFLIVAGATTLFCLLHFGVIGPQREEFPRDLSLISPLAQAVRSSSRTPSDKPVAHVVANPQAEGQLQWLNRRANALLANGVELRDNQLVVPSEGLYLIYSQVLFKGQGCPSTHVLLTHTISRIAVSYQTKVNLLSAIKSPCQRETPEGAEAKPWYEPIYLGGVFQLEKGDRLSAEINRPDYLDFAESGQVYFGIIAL

[5] = target: T2, Nucleotide-binding oligomerization domain-containing protein 1 (Homo sapiens, UniProt Q9Y239); test: blockers of NOD1 pathway activity – revised, SAR follow-up (AID 2333); format: functional
T2 sequence (Q9Y239 whole entry): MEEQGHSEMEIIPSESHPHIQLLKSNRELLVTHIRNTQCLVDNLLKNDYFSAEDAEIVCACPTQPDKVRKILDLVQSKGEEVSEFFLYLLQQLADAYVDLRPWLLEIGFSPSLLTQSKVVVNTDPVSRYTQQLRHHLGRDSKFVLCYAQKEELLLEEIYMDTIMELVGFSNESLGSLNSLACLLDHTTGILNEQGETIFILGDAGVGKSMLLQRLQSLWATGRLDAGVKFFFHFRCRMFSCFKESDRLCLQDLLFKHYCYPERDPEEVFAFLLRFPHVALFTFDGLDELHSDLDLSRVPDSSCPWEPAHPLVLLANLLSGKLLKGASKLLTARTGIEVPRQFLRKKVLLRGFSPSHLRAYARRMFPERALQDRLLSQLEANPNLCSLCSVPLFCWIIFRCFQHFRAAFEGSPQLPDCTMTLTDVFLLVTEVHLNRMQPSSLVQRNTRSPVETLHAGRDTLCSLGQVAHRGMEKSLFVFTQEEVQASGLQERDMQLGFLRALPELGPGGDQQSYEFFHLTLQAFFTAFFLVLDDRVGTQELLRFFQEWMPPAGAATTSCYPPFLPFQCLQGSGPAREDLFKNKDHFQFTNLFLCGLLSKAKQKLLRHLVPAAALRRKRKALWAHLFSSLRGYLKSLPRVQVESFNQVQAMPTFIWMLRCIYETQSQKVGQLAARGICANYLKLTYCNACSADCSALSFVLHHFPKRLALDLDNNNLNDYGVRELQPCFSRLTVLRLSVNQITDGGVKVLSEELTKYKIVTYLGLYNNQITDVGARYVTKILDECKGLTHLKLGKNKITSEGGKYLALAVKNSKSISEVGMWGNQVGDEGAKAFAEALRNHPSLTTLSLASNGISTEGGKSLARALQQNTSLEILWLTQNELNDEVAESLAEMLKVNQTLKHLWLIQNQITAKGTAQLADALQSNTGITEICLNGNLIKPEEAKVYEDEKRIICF

HEK293 [6] = test: cells; settings: Homo sapiens
CAAX prenyl protease 2 = target: T3, CAAX prenyl protease 2 (Saccharomyces cerevisiae S288c, UniProt Q03530); format: biochemical
T3 sequence (Q03530 whole entry): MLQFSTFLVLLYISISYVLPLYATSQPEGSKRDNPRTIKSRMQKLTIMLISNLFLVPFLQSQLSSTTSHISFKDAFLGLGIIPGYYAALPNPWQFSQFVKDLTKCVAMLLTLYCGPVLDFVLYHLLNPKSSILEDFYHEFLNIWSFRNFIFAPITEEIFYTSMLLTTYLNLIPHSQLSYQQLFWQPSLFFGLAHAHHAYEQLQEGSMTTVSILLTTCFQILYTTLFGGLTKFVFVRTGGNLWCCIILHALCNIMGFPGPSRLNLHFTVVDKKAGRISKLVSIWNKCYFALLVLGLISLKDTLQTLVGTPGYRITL

[7] = target: Alkaline phosphatase, placental type (Homo sapiens, UniProt P05187); test: human placental alkaline phosphatase inhibition – biochemical, luminescence, confirmation (AID 1512); format: functional
Sequence of Alkaline phosphatase, placental type (P05187 whole entry): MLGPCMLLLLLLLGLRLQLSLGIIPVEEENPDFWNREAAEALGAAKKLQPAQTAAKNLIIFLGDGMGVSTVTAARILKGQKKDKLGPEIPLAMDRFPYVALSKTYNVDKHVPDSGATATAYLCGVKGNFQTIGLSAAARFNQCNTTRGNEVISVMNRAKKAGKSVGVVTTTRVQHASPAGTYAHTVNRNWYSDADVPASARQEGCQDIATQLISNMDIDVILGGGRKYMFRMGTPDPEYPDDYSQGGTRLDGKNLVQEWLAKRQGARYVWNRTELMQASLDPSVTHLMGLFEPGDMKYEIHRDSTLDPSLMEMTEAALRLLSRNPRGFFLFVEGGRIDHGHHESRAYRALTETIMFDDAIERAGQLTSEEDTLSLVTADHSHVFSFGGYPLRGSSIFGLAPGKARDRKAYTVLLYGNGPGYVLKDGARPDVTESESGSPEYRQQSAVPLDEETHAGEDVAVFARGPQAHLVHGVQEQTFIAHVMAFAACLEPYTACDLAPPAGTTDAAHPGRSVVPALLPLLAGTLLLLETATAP

[8] = target: DNA dC->dU-editing enzyme APOBEC-3A (Homo sapiens, UniProt P31941); test: Dose Response confirmation of small molecule APOBEC3A DNA Deaminase Inhibitors via a fluorescence-based single-stranded DNA deaminase assay. [Related pubchem assays (depositor defined):AID493011, AID493024]; format: functional
Sequence of DNA dC->dU-editing enzyme APOBEC-3A (P31941 whole entry): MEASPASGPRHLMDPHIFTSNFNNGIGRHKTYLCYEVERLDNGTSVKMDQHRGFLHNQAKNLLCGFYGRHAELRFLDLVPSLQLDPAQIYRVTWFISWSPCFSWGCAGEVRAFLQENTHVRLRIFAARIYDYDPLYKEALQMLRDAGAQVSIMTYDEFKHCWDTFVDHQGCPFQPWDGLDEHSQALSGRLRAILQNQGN

[9] = target: DNA dC->dU-editing enzyme APOBEC-3G (Homo sapiens, UniProt Q9HC16); format: functional;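 also: Dose-response counterscreen measuring inhibition of APOBEC3G DNA deaminase activity, run while confirming APOBEC3A inhibitors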
Sequence of DNA dC->dU-editing enzyme APOBEC-3G (Q9HC16 whole entry): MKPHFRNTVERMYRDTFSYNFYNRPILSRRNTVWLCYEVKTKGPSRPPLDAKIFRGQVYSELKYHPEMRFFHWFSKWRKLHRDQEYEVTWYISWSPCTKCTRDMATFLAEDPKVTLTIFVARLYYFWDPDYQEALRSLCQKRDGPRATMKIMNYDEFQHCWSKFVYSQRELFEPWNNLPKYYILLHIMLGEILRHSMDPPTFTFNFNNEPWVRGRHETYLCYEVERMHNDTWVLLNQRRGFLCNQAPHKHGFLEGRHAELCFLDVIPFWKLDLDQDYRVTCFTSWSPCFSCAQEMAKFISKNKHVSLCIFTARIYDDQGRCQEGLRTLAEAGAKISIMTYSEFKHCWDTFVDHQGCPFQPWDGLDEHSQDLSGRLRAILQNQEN

Caspase-6 = target: T4, Caspase-6 (Homo sapiens, UniProt P55212); test: inhibition of CASP6 peptide cleavage – biochemical, VEID-R110 fluorescence, cherry-pick, dose response (AID 720632)
T4 sequence (P55212 whole entry): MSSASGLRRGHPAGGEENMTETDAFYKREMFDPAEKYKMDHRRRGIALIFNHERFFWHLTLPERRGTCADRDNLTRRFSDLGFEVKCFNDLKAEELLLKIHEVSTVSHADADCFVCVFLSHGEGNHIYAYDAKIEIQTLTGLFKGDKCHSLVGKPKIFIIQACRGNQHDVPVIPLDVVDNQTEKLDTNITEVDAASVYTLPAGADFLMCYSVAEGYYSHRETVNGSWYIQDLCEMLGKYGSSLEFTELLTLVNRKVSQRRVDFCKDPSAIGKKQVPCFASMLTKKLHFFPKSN

Bcl-2-related protein A1 = target: T5, Bcl-2-related protein A1 (Mus musculus, UniProt Q07440); format: functional;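 also: confirmatory dose–response counterscreen on Bfl-1, used to check hits from a UBC13 polyubiquitin inhibitor campaign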
T5 sequence (Q07440 whole entry): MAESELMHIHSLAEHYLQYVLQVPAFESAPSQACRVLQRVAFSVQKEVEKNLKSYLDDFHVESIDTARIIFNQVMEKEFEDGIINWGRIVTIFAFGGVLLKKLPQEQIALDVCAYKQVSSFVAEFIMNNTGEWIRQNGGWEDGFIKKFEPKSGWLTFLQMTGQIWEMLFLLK

[10] = target: T6, Ubiquitin-conjugating enzyme E2 N (Homo sapiens, UniProt P61088); format: functional
T6 sequence (P61088 whole entry): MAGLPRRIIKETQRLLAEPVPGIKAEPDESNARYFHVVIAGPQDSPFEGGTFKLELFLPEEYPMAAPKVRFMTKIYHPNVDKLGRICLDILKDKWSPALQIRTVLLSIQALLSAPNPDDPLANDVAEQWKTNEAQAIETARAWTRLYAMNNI

[11] = target: T6, Ubiquitin-conjugating enzyme E2 N; format: functional; remark: listed apart in the source
[12] = tested on: Streptococcus sp. 'group A'; test: Streptococcus pyogenes SK(-)GAS viability under kanamycin – luminescence, BacTiterGlo, confirmation, counter-screen for streptokinase expression inhibitor project, dose response (AID 1900); format: functional, organism-based
Streptokinase A = target: T7, Streptokinase A (Streptococcus pyogenes serotype M1, UniProt P10520); test: viability-normalized secreted streptokinase activity reduction – plasminogen activation absorbance, OD405, dose response (AID 1914); format: functional, Streptococcus pyogenes M1 GAS;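 also: secreted streptokinase activity via plasminogen activation per viability signal from cell pellet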
T7 sequence (P10520 whole entry): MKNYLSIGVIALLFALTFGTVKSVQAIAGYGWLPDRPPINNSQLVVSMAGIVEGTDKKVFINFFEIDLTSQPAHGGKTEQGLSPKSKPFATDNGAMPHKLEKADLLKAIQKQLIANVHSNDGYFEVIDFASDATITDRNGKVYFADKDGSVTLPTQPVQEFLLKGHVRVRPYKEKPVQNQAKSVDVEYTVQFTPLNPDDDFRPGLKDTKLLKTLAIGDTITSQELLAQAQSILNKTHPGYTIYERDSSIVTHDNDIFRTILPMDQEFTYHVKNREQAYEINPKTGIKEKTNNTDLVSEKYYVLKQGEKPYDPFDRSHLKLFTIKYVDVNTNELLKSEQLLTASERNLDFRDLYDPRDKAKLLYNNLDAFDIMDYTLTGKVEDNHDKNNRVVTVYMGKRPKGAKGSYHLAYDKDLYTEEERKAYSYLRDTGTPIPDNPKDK

Streptococcus = test: GAS UMAA2166 growth inhibition – luminescence, BacTiterGlo, counter-screen for streptokinase expression inhibitor project, dose response (AID 1915); format: functional, organism-based;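 also: potency for reduction of bacterial viability or growth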
Coagulation factor XII = target: T8, Coagulation factor XII (Homo sapiens, UniProt P00748); format: functional;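 also: activated factor XIIa alpha cleaving a fluorogenic AMC peptide substrate; inhibitor potency from loss of enzyme activity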
T8 sequence (P00748 whole entry): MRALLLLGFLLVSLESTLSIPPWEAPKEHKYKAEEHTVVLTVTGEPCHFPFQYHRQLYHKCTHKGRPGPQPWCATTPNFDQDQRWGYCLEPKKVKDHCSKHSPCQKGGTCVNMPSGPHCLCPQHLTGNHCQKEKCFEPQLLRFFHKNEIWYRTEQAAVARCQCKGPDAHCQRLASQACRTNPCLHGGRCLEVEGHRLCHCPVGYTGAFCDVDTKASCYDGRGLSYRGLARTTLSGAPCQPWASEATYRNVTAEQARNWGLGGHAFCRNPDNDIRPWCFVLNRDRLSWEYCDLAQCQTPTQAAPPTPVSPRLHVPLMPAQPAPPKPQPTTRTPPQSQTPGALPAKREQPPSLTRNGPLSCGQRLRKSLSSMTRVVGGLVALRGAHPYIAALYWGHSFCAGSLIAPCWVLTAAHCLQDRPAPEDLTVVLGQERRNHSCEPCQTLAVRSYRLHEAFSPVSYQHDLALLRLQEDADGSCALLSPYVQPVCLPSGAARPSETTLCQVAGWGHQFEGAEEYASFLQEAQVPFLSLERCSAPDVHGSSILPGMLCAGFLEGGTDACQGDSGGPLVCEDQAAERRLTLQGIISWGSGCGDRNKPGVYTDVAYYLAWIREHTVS

[13] = target: T9, Alkaline phosphatase, tissue-nonspecific isozyme (Homo sapiens, UniProt P05186); test: potency against alkaline phosphatase TNAP – biochemical, luminescent, dose response, SAR follow-up (AID 1056)
T9 sequence (P05186 whole entry): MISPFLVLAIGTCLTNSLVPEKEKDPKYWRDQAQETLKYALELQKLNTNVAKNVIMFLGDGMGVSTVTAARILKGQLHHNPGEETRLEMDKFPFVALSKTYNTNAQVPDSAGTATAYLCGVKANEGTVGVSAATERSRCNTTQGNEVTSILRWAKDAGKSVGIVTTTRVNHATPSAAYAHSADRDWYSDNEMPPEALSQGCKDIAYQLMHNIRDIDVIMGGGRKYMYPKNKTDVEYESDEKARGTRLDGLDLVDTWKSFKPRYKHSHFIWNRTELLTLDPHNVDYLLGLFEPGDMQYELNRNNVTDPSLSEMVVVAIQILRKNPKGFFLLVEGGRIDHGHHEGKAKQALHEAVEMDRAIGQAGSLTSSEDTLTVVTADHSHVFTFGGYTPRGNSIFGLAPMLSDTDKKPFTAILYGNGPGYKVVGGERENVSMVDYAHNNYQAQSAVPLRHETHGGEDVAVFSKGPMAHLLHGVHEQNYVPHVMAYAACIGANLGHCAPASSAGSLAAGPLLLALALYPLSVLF

T-cell = test: loss of vesicle association with mouse CD8+ T cells – mouse 2C CD8+ T cells, flow cytometry, dose response (AID 485284); format: functional

COc1ccc(C(=O)Nc2cnccc2C(=O)O)cc1
IC50 (Hexokinase): > 25 µM (inactive)

Oc1nc(/C=C/c2ccccc2C(F)(F)F)cc(C(F)(F)F)n1
EC50 (HEK293 [1]): 9.79 µM (active) | IC50 (HEK293 [2]): > 20 µM (inactive) | IC50 (HEK293 [3]): > 20 µM (inactive) | IC50 (HEK293 [4]): 13.3 µM (inactive) | IC50 (Tumor necrosis factor): 11.3 µM (active) | IC50 [5]: 3.82 µM (active) | IC50 (HEK293 [6]): > 20 µM (inactive)

CCOc1ccc(N(Cc2ccc(OC)cc2)C(=O)c2ccco2)cc1
AC50 (CAAX prenyl protease 2): 4.23 µM (active)

CCCCN=C(S)NNC(=O)c1nn(C)c(C)c1Cl
IC50 [7]: > 100 µM (inactive)

O=C(O)c1ccc2c3c(cccc13)C(=O)N(c1ccccc1)C2=O
IC50 [8]: 14 µM (active) | IC50 [9]: 37.5 µM (active) | AC50 (Caspase-6): 11.9 µM (active)

COc1ccc(C(=O)Nn2c(C)nc3ccccc3c2=O)cc1
IC50 (Bcl-2-related protein A1): > 20 µM (inactive) | IC50 [10]: 10.6 µM (active) | IC50 [11]: 6.37 µM (active)

Cc1cc(Cl)c2oc(C(=O)N3CCN(C(=O)c4ccco4)CC3)c(C)c2c1
EC50 [12]: 3.4 µM (active) | EC50 (Streptokinase A): > 150 µM (not active) | EC50 (Streptococcus): 24.7 µM (active) | AC50 (CAAX prenyl protease 2): 21.7 µM (active)

CCOc1ncccc1C(=O)OCC(=O)Nc1ccc(C(N)=O)cc1
IC50 (Coagulation factor XII): > 50 µM (inactive)

Cc1nc2nc(C)n(-c3ccccc3)c2s1
IC50 [8]: 17.7 µM (active) | IC50 [9]: 6.72 µM (active)

CCCCN1C(=O)/C(=N\Nc2ccccc2C(F)(F)F)c2ccccc21
IC50 [7]: 49.7 µM (active) | IC50 [13]: 73.8 µM (active)

COCCCN1CCc2nc(S)nc(O)c2C1
EC50 (T-cell): 0.594 µM (active)

COc1ccc(CCNC(=O)CCn2c(=O)c3ccccc3n(CC(=O)NCC3CCCO3)c2=O)cc1OC (stereo not drawn)
IC50 (Coagulation factor XII): > 50 µM (inactive)

O=C1Nc2ccccc2/C1=C\NCCc1ccc(O)c(O)c1
IC50 [7]: 0.374 µM (active) | IC50 [13]: 2.54 µM (active)

CCN1C(NCCCOC(C)C)=N[C@@H](c2ccccc2)[C@H](C(=O)OC)[C@H]1C
IC50 [8]: 3.99 µM (active) | IC50 [9]: 7.19 µM (active)

COc1ccc(C(=O)N(C)c2cc(Cl)ccc2C(=O)O)cc1
IC50 (Hexokinase): > 25 µM (inactive)

Cc1ccc(N2CC(C(=O)NC3=NCCS3)CC2=O)cc1 (stereo not drawn)
EC50 (T-cell): 22.1 µM (active)
